Source: publication PMC6766931, “Design, Synthesis, and Activity Evaluation of Novel N-benzyl Deoxynojirimycin Derivatives for Use as α-Glucosidase Inhibitors” (Molecules, 2019)

How the values were obtained:
α-glucosidase [1] = target: T1, α-glucosidase (Saccharomyces cerevisiae, UniProt P53341); assay: Enzyme kinetics study (Michaelis-Menten, non-linear regression); type: biochemical; settings: inhibitor concentration 0.25 mM; for Vmax: substrate PNPG 0.1-5 mM
T1 construct: purchased Sigma-Aldrich
Experimental: In the enzyme kinetics studies, the enzyme activity was measured at different times using different concentrations of the substrate p-nitrophenyl α-D-glucopyranoside (0.1, 0.2, 0.8, 1.0, 1.2, 1.6, 1.8, 2.0, 2.5, 5 mM). The kinetics of the enzymatic reaction were fit to the Michaelis‒Menten equation. The Michaelis‒Menten equation is as follows:V = Vmax[S]/(Km + [S]).
In this equation, [S] is the concentration of the substrate, Vmax is the maximum reaction velocity of the enzymatic reaction, and Km is the Michaelis constant. […] Non-linear fitting was performed with the help of Origin 8.5, which can calculate the Vmax and Km values. The Ki constant was determined as follows:Ki = [I]/(K’m/Km − 1).
In this formula, [I] is the concentration of inhibitor, K’m is the Michaelis constant of the experimental group, and Km is the Michaelis constant of the blank group.
The same protocol was followed for the experiments reported in Figure 1 except that the inhibitor concentration was 0.25 mM and the substrate concentration was varied as indicated (0.1, 0.2, 0.8, 1.0, 1.2, 1.6, 1.8, 2.0, 2.5, 5 mM). The Km and Vmax values were calculated using […], and then, the Ki value was calculated using the formula that was mentioned in Section 2.3.

[2] = set-up: method as in earlier work; settings: quickly metabolized and excreted; cited from earlier work
α-glucosidase [3] = target: T1, α-glucosidase; assay: In vitro assay of α-glucosidase inhibitory activity (PNPG, 96-well microplates); type: biochemical; settings: substrate PNPG, pH 6.8, 37 °C, read-out: IC50 (mM) ± SEM
[4] = set-up: method as in PMID 1475231; settings: rats, cited from earlier work
[5] = intravenous administration, biphasic reduction in plasma

T1 sequence (P53341 whole entry): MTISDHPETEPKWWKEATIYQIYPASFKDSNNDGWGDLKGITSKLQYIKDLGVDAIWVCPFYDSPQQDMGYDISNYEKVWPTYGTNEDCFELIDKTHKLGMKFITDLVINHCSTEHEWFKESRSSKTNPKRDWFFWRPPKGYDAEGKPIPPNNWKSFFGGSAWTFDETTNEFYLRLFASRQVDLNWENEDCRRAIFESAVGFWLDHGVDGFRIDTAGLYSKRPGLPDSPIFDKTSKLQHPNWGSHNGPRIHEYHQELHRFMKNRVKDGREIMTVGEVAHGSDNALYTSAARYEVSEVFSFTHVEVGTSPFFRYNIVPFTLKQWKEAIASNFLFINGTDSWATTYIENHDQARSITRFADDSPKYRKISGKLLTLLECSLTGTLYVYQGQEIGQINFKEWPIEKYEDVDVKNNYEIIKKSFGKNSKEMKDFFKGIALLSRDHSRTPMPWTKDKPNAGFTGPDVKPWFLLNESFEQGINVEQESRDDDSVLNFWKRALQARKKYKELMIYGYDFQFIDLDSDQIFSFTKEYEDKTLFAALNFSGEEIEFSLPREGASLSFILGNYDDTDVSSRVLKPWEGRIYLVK

Compound	IC50 (α-glucosidase [3])	further results
C[C@H]1O[C@H](O[C@H]2[C@H](O)[C@@H](O)[C@@H](O[C@H]3[C@H](O)[C@@H](O)C(O)O[C@@H]3CO)O[C@@H]2CO)[C@H](O)[C@@H](O)[C@@H]1N[C@H]1C=C(CO)[C@@H](O)[C@H](O)[C@H]1O (stereo partly shown) [Acarbose, reference compound]		Vmax (α-glucosidase [1]): 4.40 ± 0.42 *10^−6 mmol/min
OC[C@H]1NC[C@H](O)[C@@H](O)[C@@H]1O [Compound 1-DNJ, 1-deoxynojirimycin]		hypoglycaemic effect in vivo [2]: no significant hypoglycaemic effect
OCC1C(O)C(O)C(O)CN1Cc1ccc(F)cc1 (stereo not shown) [Compound 12a, 1-(4-fluorobenzyl)-2-(hydroxymethyl) piperidine-3,4,5-triol]	9.8 ± 0.31 mM	
OCC1C(O)C(O)C(O)CN1Cc1ccc(Cl)cc1 (stereo not shown) [Compound 12b, 1-(4-chlorobenzyl)-2-(hydroxymethyl) piperidine-3,4,5-triol]	11.22 ± 0.02 mM	
OCC1C(O)C(O)C(O)CN1Cc1ccc(Br)cc1 (stereo not shown) [Compound 12c, 1-(4-bromobenzyl)-2-(hydroxymethyl) Piperidine-3,4,5-triol]	12.55 ± 0.03 mM	
OCC1C(O)C(O)C(O)CN1Cc1ccc(I)cc1 (stereo not shown) [Compound 12d, 2-(hydroxymethyl)-1-(4-iodobenzyl) Piperidine-3,4,5-triol]	9.88 ± 0.05 mM	
Cc1ccc(CN2CC(O)C(O)C(O)C2CO)cc1 (stereo not shown) [Compound 12e, 2-(hydroxymethyl)-1-(4-methylbenzyl) Piperidine-3,4,5-triol]	8.65 ± 0.08 mM	
COc1ccc(CN2CC(O)C(O)C(O)C2CO)cc1 (stereo not shown) [Compound 12f, 2-(hydroxymethyl)-1-(4-methoxybenzyl) Piperidine-3,4,5-triol]	1.02 ± 0.23 mM	
OCC1C(O)C(O)C(O)CN1Cc1cccc(F)c1 (stereo not shown) [Compound 12g, 1-(3-fluorobenzyl)-2-(hydroxymethyl) Piperidine-3,4,5-triol]	10.23 ± 0.02 mM	
OCC1C(O)C(O)C(O)CN1Cc1cccc(Cl)c1 (stereo not shown) [Compound 12h, 1-(3-chlorobenzyl)-2-(hydroxymethyl) Piperidine-3,4,5-triol]	15.32 ± 0.04 mM	
OCC1C(O)C(O)C(O)CN1Cc1cccc(Br)c1 (stereo not shown) [Compound 12i, 1-(3-bromobenzyl)-2-(hydroxymethyl) Piperidine-3,4,5-triol]	15.66 ± 0.04 mM	
OCC1C(O)C(O)C(O)CN1Cc1cccc(I)c1 (stereo not shown) [Compound 12j, 2-(hydroxymethyl)-1-(3-iodobenzyl) Piperidine-3,4,5-triol]	10.54 ± 0.04 mM	
Cc1cccc(CN2CC(O)C(O)C(O)C2CO)c1 (stereo not shown) [Compound 12k, 2-(hydroxymethyl)-1-(3-methylbenzyl) Piperidine-3,4,5-triol]	10.3 ± 0.21 mM	
COc1cccc(CN2CC(O)C(O)C(O)C2CO)c1 (stereo not shown) [Compound 12l, 2-(hydroxymethyl)-1-(3-methoxybenzyl) Piperidine-3,4,5-triol]	1.25 ± 0.34 mM	
COc1cc(CN2C[C@H](O)[C@@H](O)[C@H](O)[C@H]2CO)cc(Br)c1OCc1ccccc1 [Compound 17b]	15.68 ± 0.06 mM	
COc1cc(CN2CC(O)C(O)C(O)C2CO)cc(Br)c1OC (stereo not shown) [Compound 17c, 1-(3-bromo-4,5-dimethoxybenzyl)-2-(hydroxymethyl) Piperidine-3,4,5-triol]	1.06 ± 0.11 mM	
COc1cc(CN2CC(O)C(O)C(O)C2CO)c(Br)c(Br)c1OC (stereo not shown) [Compound 17d, 1-(2,3-dibromo-4,5-dimethoxybenzyl)-2-(hydroxymethyl) Piperidine-3,4,5-triol]	1.14 ± 0.09 mM	
COc1c(Br)c(Br)c(CN2C[C@H](O)[C@@H](O)[C@H](O)[C@H]2CO)c(Br)c1OC [Compound 17e, 2-(hydroxymethyl)-1-(2,3,6-tribromo-4,5-dimethoxybenzyl)-2-piperidine-3,4,5-triol]	9.57 ± 0.08 mM	
COc1cc(CN2CC(O)C(O)C(O)C2CO)ccc1O (stereo not shown) [Compound 18a, 1-(4-hydroxy-3-methoxybenzyl)-2-(hydroxymethyl) piperidine-3,4,5-triol]	0.207 ± 0.11 mM	Vmax (α-glucosidase [1]): 3.56 ± 0.28 *10^−6 mmol/min; Ki (α-glucosidase [1]; Ki = [I]/(K'm/Km − 1)): 110 ± 300 µM
COc1cc(CN2CC(O)C(O)C(O)C2CO)cc(Br)c1O (stereo not shown) [Compound 18b, 1-(3-bromo-4-hydroxy-5-methoxybenzyl)-2-(hydroxymethyl) piperidine-3,4,5-triol]	0.276 ± 0.13 mM	
CN1C[C@H](O)[C@@H](O)[C@H](O)[C@H]1CO [N-methyl-DNJ]		initial t1/2 in plasma [4, 5]: 4.5 min; terminal t1/2 in plasma [4, 5]: 32 min; dose recovered from the urine unchanged ([4]; intravenous, at 120 min after administration): 80%
